According to ChEMBL document CHEMBL4138123, “Design, synthesis and biological evaluation of novel pyrazolochalcones as potential modulators of PI3K/Akt/mTOR pathway and inducers of apoptosis in breast cancer cells” (Eur J Med Chem, 2017):

Assays:
Type in all cases: functional
DU-145 = experiment: Cytotoxicity against human DU145 cells assessed as growth inhibition after 48 hrs by sulforhodamine B assay; settings: DU-145, 48 h
SR = experiment: Cytotoxicity against human SR cells assessed as cell growth at 0.1 uM after 48 hrs by sulforhodamine B assay relative to control; settings: read-out: Activity
MDA-MB-435 = experiment: Cytotoxicity against human MDA-MB-435 cells assessed as growth inhibition after 48 hrs by sulforhodamine B assay; settings: MDA-MB-435, 48 h
KM12 [1] = experiment: Cytotoxicity against human KM12 cells assessed as cell growth at 0.01 uM after 48 hrs by sulforhodamine B assay relative to control; settings: KM12, 48 h, read-out: Activity
SK-MEL-28 = experiment: Cytotoxicity against human SK-MEL-28 cells assessed as cell growth at 0.01 uM after 48 hrs by sulforhodamine B assay relative to control; settings: SK-MEL-28, 48 h, read-out: Activity
TK-10 = experiment: Cytotoxicity against human TK10 cells assessed as cell growth at 0.01 uM after 48 hrs by sulforhodamine B assay relative to control; settings: TK-10, 48 h, read-out: Activity
HCC 2998 [2] = experiment: Cytotoxicity against human HCC2998 cells assessed as cell growth at 0.01 uM after 48 hrs by sulforhodamine B assay relative to control; settings: HCC 2998, 48 h, read-out: Activity
SNB-19 = experiment: Cytotoxicity against human SNB19 cells assessed as cell growth at 10 uM after 48 hrs by sulforhodamine B assay relative to control; settings: SNB-19, 48 h, read-out: Activity
HCT-15 [3] = experiment: Cytotoxicity against human HCT15 cells assessed as cell growth at 10 uM after 48 hrs by sulforhodamine B assay relative to control; settings: HCT-15, 48 h, read-out: Activity
COLO 205 [4] = experiment: Cytotoxicity against human COLO205 cells assessed as cell growth at 10 uM after 48 hrs by sulforhodamine B assay relative to control; settings: COLO 205, 48 h, read-out: Activity
M14 = experiment: Cytotoxicity against human M14 cells assessed as growth inhibition after 48 hrs by sulforhodamine B assay; settings: M14, 48 h
HT-29 = experiment: Cytotoxicity against human HT-29 cells assessed as cell growth at 0.01 uM after 48 hrs by sulforhodamine B assay relative to control; settings: HT-29, 48 h, read-out: Activity
COLO 205 [5] = experiment: Cytotoxicity against human COLO205 cells assessed as cell growth at 0.1 uM after 48 hrs by sulforhodamine B assay relative to control; settings: COLO 205, 48 h, read-out: Activity
MDA-MB-468 = experiment: Cytotoxicity against human MDA-MB-468 cells assessed as cell growth at 0.01 uM after 48 hrs by sulforhodamine B assay relative to control; settings: MDA-MB-468, 48 h, read-out: Activity
UACC-257 = experiment: Cytotoxicity against human UACC257 cells assessed as cell growth at 0.1 uM after 48 hrs by sulforhodamine B assay relative to control; settings: UACC-257, 48 h, read-out: Activity
PC-3 = experiment: Cytotoxicity against human PC3 cells assessed as growth inhibition after 48 hrs by sulforhodamine B assay; settings: PC-3, 48 h
OVCAR-5 = experiment: Cytotoxicity against human OVCAR5 cells assessed as cell growth at 10 uM after 48 hrs by sulforhodamine B assay relative to control; settings: OVCAR-5, 48 h, read-out: Activity
KM12 [6] = experiment: Cytotoxicity against human KM12 cells assessed as cell growth at 1 uM after 48 hrs by sulforhodamine B assay relative to control; settings: KM12, 48 h, read-out: Activity
SN12C = experiment: Cytotoxicity against human SN12C cells assessed as cell growth at 0.1 uM after 48 hrs by sulforhodamine B assay relative to control; settings: read-out: Activity
HCT-15 [7] = experiment: Cytotoxicity against human HCT15 cells assessed as cell growth at 0.01 uM after 48 hrs by sulforhodamine B assay relative to control; settings: HCT-15, 48 h, read-out: Activity
SK-OV-3 = experiment: Cytotoxicity against human SKOV3 cells assessed as cell growth at 0.1 uM after 48 hrs by sulforhodamine B assay relative to control; settings: SK-OV-3, 48 h, read-out: Activity
MDA-MB-231 = experiment: Cytotoxicity against human MDA-MB-231 cells assessed as cell growth at 10 uM after 48 hrs by sulforhodamine B assay relative to control; settings: MDA-MB-231, 48 h, read-out: Activity
COLO 205 [8] = experiment: Cytotoxicity against human COLO205 cells assessed as growth inhibition after 48 hrs by sulforhodamine B assay; settings: COLO 205, 48 h
CCRF-CEM = experiment: Cytotoxicity against human CCRF-CEM cells assessed as growth inhibition after 48 hrs by sulforhodamine B assay
Hs-578T [9] = experiment: Cytotoxicity against human Hs 578T cells assessed as cell growth at 0.01 uM after 48 hrs by sulforhodamine B assay relative to control; settings: read-out: Activity
OVCAR-8 = experiment: Cytotoxicity against human OVCAR8 cells assessed as cell growth at 10 uM after 48 hrs by sulforhodamine B assay relative to control; settings: OVCAR-8, 48 h, read-out: Activity
HCC 2998 [10] = experiment: Cytotoxicity against human HCC2998 cells assessed as cell growth at 10 uM after 48 hrs by sulforhodamine B assay relative to control; settings: HCC 2998, 48 h, read-out: Activity
Hs-578T [11] = experiment: Cytotoxicity against human Hs 578T cells assessed as cell growth at 1 uM after 48 hrs by sulforhodamine B assay relative to control; settings: read-out: Activity
HOP-62 = experiment: Cytotoxicity against human HOP62 cells assessed as cell growth at 1 uM after 48 hrs by sulforhodamine B assay relative to control; settings: HOP-62, 48 h, read-out: Activity
HCT-116 = experiment: Cytotoxicity against human HCT116 cells assessed as cell growth at 10 uM after 48 hrs by sulforhodamine B assay relative to control; settings: HCT-116, 48 h, read-out: Activity
A498 = experiment: Cytotoxicity against human A498 cells assessed as cell growth at 100 uM after 48 hrs by sulforhodamine B assay relative to control; settings: A498, 48 h, read-out: Activity
HCC 2998 [12] = experiment: Cytotoxicity against human HCC2998 cells assessed as cell growth at 0.1 uM after 48 hrs by sulforhodamine B assay relative to control; settings: HCC 2998, 48 h, read-out: Activity
UO-31 = experiment: Cytotoxicity against human UO31 cells assessed as cell growth at 0.1 uM after 48 hrs by sulforhodamine B assay relative to control; settings: UO-31, 48 h, read-out: Activity
OVCAR-3 = experiment: Cytotoxicity against human OVCAR3 cells assessed as growth inhibition after 48 hrs by sulforhodamine B assay; settings: OVCAR-3, 48 h

**Q.** `COc1ccc(-c2cc(/C=C/C(=O)c3ccc(N)cc3)[nH]n2)cc1` was tested. Which GI50 (DU-145) did it give?
**A.** 1.32 µM

**Q.** And the TGI (DU-145)?
**A.** 3.46 µM

**Q.** What about the CC50 (DU-145; read-out: LC50 (the source's name)) of the same compound?
**A.** 9.11 µM

**Q.** What about the growth at 0.1 µM (SR) of the same compound?
**A.** 98%

**Q.** What about the GI50 (MDA-MB-435) of the same compound?
**A.** 2.24 µM

**Q.** What about the LC50 (MDA-MB-435) of the same compound?
**A.** 38.2 µM

**Q.** What about the TGI (MDA-MB-435) of the same compound?
**A.** 7 µM

**Q.** What about the growth at 0.01 µM (KM12 [1]) of the same compound?
**A.** 96%

**Q.** What about the growth at 0.01 µM (SK-MEL-28) of the same compound?
**A.** 98%

**Q.** What about the growth at 0.01 µM (TK-10) of the same compound?
**A.** 93%

**Q.** What about the growth at 0.01 µM (HCC 2998 [2]) of the same compound?
**A.** 96%

**Q.** And the growth at 10 µM (SNB-19)?
**A.** 5%

**Q.** What about the growth at 10 µM (HCT-15 [3]) of the same compound?
**A.** -40%

**Q.** And the growth at 10 µM (COLO 205 [4])?
**A.** -86%

**Q.** What about the GI50 (M14) of the same compound?
**A.** 2.67 µM

**Q.** What about the LC50 (concentration killing 50% of cells) (M14) of the same compound?
**A.** 36.1 µM

**Q.** And the TGI (M14)?
**A.** 6.54 µM

**Q.** And the growth at 0.01 µM (HT-29)?
**A.** 97%

**Q.** What about the growth at 0.1 µM (COLO 205 [5]) of the same compound?
**A.** 96%

**Q.** And the growth at 0.01 µM (MDA-MB-468)?
**A.** 103%

**Q.** What about the growth at 0.1 µM (UACC-257) of the same compound?
**A.** 97%

**Q.** And the GI50 (PC-3)?
**A.** 2.42 µM

**Q.** What about the LC50 (PC-3) of the same compound?
**A.** 39.8 µM

**Q.** And the TGI (PC-3)?
**A.** 10.1 µM

**Q.** And the growth at 10 µM (OVCAR-5)?
**A.** -41%

**Q.** What about the growth at 1 µM (KM12 [6]) of the same compound?
**A.** 77%

**Q.** And the growth at 0.1 µM (SN12C)?
**A.** 94%

**Q.** What about the growth at 0.01 µM (HCT-15 [7]) of the same compound?
**A.** 97%

**Q.** And the growth at 0.1 µM (SK-OV-3)?
**A.** 103%

**Q.** What about the growth at 10 µM (MDA-MB-231) of the same compound?
**A.** -7%

**Q.** And the GI50 (COLO 205 [8])?
**A.** 1.85 µM

**Q.** And the LC50 (COLO 205 [8])?
**A.** 6.41 µM

**Q.** And the TGI (COLO 205 [8])?
**A.** 3.45 µM

**Q.** What about the GI50 (CCRF-CEM) of the same compound?
**A.** 1.32 µM

**Q.** What about the LC50 (concentration killing 50% of cells) (CCRF-CEM) of the same compound?
**A.** 36.1 µM

**Q.** And the TGI (CCRF-CEM)?
**A.** 4.91 µM

**Q.** And the growth at 0.01 µM (Hs-578T [9])?
**A.** 98%

**Q.** What about the growth at 10 µM (OVCAR-8) of the same compound?
**A.** 9%

**Q.** And the growth at 10 µM (HCC 2998 [10])?
**A.** -90%

**Q.** What about the growth at 1 µM (Hs-578T [11]) of the same compound?
**A.** 93%

**Q.** And the growth at 1 µM (HOP-62)?
**A.** 102%

**Q.** And the growth at 10 µM (HCT-116)?
**A.** -53%

**Q.** What about the growth at 100 µM (A498) of the same compound?
**A.** -96%

**Q.** And the growth at 0.1 µM (HCC 2998 [12])?
**A.** 98%

**Q.** What about the growth at 0.1 µM (UO-31) of the same compound?
**A.** 82%

**Q.** And the GI50 (OVCAR-3)?
**A.** 1.25 µM

**Q.** What about the LC50 (OVCAR-3) of the same compound?
**A.** 7.09 µM

**Q.** What about the TGI (OVCAR-3) of the same compound?
**A.** 2.97 µM
